Data reported in ChEMBL document CHEMBL4823263, “Discovery of 2-(3-(3-Carbamoylpiperidin-1-yl)phenoxy)acetic Acid Derivatives as Novel Small-Molecule Inhibitors of the β-Catenin/B-Cell Lymphoma 9 Protein-Protein Interaction” (J Med Chem, 2021).
pIC50, pKi: −log10 of the molar value. Blank lines part the entries; values can stand above or below the molecule they belong to.

Columns and labels:
[1] = molecular target: T1, beta-catenin-B-cell lymphoma 9 protein complex (Homo sapiens, UniProt P35222); assay: Inhibition of full length C-terminal 6-His-tagged beta-catenin (1 to 781 residues) (unknown origin) expressed in Escherichia coli BL21 (DE3)-N-terminal biotinylated human BCL9 (350 to 375 residues) protein-protein interaction incubated for 1 hr by Alphascreen assay
T1 sequence (P35222 whole entry): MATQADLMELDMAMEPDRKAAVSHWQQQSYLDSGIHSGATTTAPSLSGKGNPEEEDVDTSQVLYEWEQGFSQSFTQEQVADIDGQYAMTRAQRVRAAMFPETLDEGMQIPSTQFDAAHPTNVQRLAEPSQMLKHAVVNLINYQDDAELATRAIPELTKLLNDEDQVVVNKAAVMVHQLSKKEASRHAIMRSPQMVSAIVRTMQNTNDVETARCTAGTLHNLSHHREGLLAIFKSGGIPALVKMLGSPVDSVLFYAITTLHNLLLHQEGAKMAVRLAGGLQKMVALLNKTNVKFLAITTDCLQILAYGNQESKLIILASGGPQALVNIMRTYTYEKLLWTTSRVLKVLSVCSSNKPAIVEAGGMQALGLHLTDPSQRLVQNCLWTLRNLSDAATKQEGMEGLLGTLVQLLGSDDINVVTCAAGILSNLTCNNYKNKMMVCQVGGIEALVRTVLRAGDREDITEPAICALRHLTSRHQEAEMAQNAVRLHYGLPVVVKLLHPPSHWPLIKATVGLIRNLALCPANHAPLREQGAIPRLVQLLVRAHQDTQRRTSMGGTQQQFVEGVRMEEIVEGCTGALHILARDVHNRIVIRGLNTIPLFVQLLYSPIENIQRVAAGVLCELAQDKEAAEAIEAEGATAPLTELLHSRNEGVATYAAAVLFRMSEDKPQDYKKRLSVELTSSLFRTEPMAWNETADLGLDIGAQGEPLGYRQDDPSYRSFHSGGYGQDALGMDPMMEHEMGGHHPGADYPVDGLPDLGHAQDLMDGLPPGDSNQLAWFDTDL
T1 sequence (O00512 whole entry): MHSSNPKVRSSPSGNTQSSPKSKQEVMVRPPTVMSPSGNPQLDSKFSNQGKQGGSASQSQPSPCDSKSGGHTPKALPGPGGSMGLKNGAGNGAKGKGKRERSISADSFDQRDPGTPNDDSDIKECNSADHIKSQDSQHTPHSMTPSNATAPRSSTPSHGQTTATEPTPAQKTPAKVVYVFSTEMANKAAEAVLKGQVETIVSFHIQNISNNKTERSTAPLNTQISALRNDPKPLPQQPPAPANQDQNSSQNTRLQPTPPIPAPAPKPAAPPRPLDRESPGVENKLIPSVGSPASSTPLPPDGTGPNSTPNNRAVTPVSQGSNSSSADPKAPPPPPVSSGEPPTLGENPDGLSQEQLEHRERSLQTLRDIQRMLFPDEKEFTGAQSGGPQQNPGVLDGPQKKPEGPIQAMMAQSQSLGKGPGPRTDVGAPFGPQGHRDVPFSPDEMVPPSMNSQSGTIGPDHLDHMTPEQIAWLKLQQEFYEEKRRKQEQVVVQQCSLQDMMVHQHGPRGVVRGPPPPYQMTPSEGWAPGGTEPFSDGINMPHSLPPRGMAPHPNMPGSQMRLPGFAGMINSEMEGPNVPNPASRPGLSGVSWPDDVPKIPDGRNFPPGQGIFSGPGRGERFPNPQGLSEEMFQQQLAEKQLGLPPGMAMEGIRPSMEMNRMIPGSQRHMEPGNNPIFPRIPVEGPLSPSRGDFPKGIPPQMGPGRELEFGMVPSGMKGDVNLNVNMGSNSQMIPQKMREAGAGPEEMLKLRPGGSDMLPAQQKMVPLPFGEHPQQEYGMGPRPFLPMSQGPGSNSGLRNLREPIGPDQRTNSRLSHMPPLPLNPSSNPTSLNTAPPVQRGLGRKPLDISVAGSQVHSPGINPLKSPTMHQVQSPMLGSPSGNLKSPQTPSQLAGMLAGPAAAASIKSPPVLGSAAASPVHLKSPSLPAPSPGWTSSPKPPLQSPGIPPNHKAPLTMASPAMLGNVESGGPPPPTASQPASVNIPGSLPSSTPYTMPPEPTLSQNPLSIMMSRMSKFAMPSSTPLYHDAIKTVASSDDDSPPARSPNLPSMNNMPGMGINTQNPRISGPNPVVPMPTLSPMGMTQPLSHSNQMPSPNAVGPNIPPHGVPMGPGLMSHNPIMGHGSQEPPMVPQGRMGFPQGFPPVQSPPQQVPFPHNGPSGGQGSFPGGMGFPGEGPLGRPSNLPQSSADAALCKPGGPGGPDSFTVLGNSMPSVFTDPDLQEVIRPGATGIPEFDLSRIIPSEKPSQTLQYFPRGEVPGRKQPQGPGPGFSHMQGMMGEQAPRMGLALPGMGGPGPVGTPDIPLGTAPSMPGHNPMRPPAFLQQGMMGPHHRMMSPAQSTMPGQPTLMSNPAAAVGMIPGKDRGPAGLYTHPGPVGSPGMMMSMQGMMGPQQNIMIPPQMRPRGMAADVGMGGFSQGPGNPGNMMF

[2] = system: HCT-116; assay: Antiproliferative activity against human HCT116 cells incubated for 72 hrs by MTS assay; type: functional, cell-based; settings: HCT-116, 72 h
[3] = system: SW480; assay: Inhibition of Wnt/beta-catenin transactivation signalling in human SW480 cells harboring mutant tcf4 binding sites assessed as relative activity at 3.125 uM incubated for 24 hrs by FOPFlash luciferase assay relative to control; type: cell-based; design: scale not given: the % may be the effect or the level left
[4] = system: SW480; assay: Antiproliferative activity against human SW480 cells incubated for 72 hrs by MTS assay; type: functional, cell-based; settings: SW480, 72 h
[5] = system: SW480; assay: Inhibition of Wnt/beta-catenin transactivation signalling in human SW480 cells harboring mutant tcf4 binding sites assessed as relative activity at 12.5 uM incubated for 24 hrs by FOPFlash luciferase assay relative to control; type: cell-based; design: scale not given: the % may be the effect or the level left
[6] = system: SW480; assay: Inhibition of Wnt/beta-catenin transactivation signalling in human SW480 cells harboring mutant tcf4 binding sites assessed as relative activity at 6.25 uM incubated for 24 hrs by FOPFlash luciferase assay relative to control; type: cell-based; design: scale not given: the % may be the effect or the level left
[7] = system: MCF-10A; assay: Antiproliferative activity against human MCF10A cells incubated for 72 hrs by MTS assay; type: functional, cell-based
[8] = system: MDA-MB-231; assay: Antiproliferative activity against human MDA-MB-231 cells incubated for 72 hrs by MTS assay; type: functional, cell-based; settings: MDA-MB-231, 72 h
[9] = system: MDA-MB-468; assay: Antiproliferative activity against human MDA-MB-468 cells incubated for 72 hrs by MTS assay; type: functional, cell-based; settings: MDA-MB-468, 72 h
[10] = (§1) Inhibition of Wnt/beta-catenin transactivation signalling in human SW480 cells harboring wild type tcf4 binding sites incubated for 24 hrs by TOPFlash luciferase assay; type: cell-based
[11] = system: SW480; assay: as §1; type: cell-based

SMILES: CC(C)(Oc1cccc(N2CCCC(C(=O)N(Cc3ccc(-c4ccco4)cc3)C3CC3)C2)c1)C(=O)O (stereo unspecified)
pIC50 [1]: 4.30
pKi [1]: 4.38

SMILES: CCN(Cc1ccc(C(C)C)cc1)C(=O)C1CCCN(c2cccc(OC(C)(C)C(=O)O)c2)C1 (stereo unspecified)
pIC50 [1]: 4.23
pKi [1]: 4.30

SMILES: Cn1cc(-c2ccc(CN(C(=O)C3CCCN(c4cccc(OC(C)(C)C(=O)O)c4)C3)C3CC3)cc2)cn1 (stereo unspecified)
pIC50 [1]: < 4.00
pKi [1]: < 4.05

SMILES: CC(C)c1ccc(CCNC(=O)C2CCCN(c3cccc(OC(C)(C)C(=O)O)c3)C2)cc1 (stereo unspecified)
pIC50 [1]: 4.04
pKi [1]: 4.09

SMILES: CC(C)(C)OC(=O)C(C)(C)Oc1cccc(N2CCCC(C(=O)N(Cc3ccc(-c4cccs4)cc3)C3CC3)C2)c1 (stereo unspecified)
pIC50 [2]: < 3.70
pIC50 [4]: < 3.70
pIC50 [1]: < 4.00
pKi [1]: < 4.05
pIC50 [7]: < 3.70
pIC50 [8]: < 3.70
pIC50 [9]: < 3.70

SMILES: CC(C)(Oc1cccc(N2CCCC(C(=O)N(Cc3ccc(-c4cccs4)cc3)C3CC3)C2)c1)C(=O)O (stereo unspecified)
pIC50 [2]: 3.95
pIC50 [4]: 3.86
pIC50 [1]: 4.82
pKi [1]: 4.89
pIC50 [7]: 4.01
pIC50 [8]: 3.99
pIC50 [9]: 4.02

SMILES: CC(C)(Oc1cccc(N2CCCC(C(=O)N(Cc3ccc(-c4cccs4)cc3)C3CC3)C2)c1)C(=O)NS(=O)(=O)C1CC1 (stereo unspecified)
pIC50 [1]: 4.64
pKi [1]: 4.72

SMILES: CC(C)(Oc1cccc(N2CCCC(C(=O)N(Cc3ccc(-c4ccsc4)cc3)C3CC3)C2)c1)C(=O)O (stereo unspecified)
pIC50 [1]: 4.46
pKi [1]: 4.52

SMILES: CC(C)(Oc1cccc(N2CCCC(C(=O)N(Cc3ccc(-c4ccoc4)cc3)C3CC3)C2)c1)C(=O)O (stereo unspecified)
pIC50 [1]: < 4.00
pKi [1]: < 4.05

SMILES: Cn1nccc1-c1ccc(CN(C(=O)C2CCCN(c3cccc(OC(C)(C)C(=O)O)c3)C2)C2CC2)cc1 (stereo unspecified)
pIC50 [1]: < 4.00
pKi [1]: < 4.05

SMILES: COC(=O)C(C)(C)Oc1cccc(N2CCCC(C(=O)N(Cc3ccc(-c4cccs4)cc3)C3CC3)C2)c1 (stereo unspecified)
pIC50 [1]: < 4.00
pKi [1]: < 4.05

SMILES: CC(C)(Oc1cccc(N2CCCC(C(=O)N(Cc3ccc(-c4ccn[nH]4)cc3)C3CC3)C2)c1)C(=O)O (stereo unspecified)
pIC50 [1]: 4.14
pKi [1]: 4.21

SMILES: CC(C)c1ccc(CN(C(=O)C2CCCN(c3cccc(OC(C)(C)C(=O)O)c3)C2)C(C)C)cc1 (stereo unspecified)
pIC50 [1]: 4.28
pKi [1]: 4.34

SMILES: CC(C)c1ccc(CNC(=O)C2CCCN(c3cccc(OC(C)(C)C(=O)O)c3)C2)cc1 (stereo unspecified)
pIC50 [1]: 4.08
pKi [1]: 4.15

SMILES: CC(C)c1ccc(CN(C(=O)C2CCCN(c3cccc(OC(C)(C)C(=O)O)c3)C2)C2CC2)cc1 (stereo unspecified)
pIC50 [1]: 4.40
pKi [1]: 4.44

SMILES: CC(C)(Oc1cccc(N2CCCC(C(=O)N(Cc3ccc(-c4cn[nH]c4)cc3)C3CC3)C2)c1)C(=O)O (stereo unspecified)
pIC50 [1]: < 4.00
pKi [1]: < 4.05

SMILES: CC(C)S(=O)(=O)NC(=O)C(C)(C)Oc1cccc(N2CCCC(C(=O)N(Cc3ccc(-c4cccs4)cc3)C3CC3)C2)c1 (stereo unspecified)
pIC50 [1]: 4.89
pKi [1]: 4.96

SMILES: CC(C)c1ccc(CN(C)C(=O)C2CCCN(c3cccc(OC(C)(C)C(=O)O)c3)C2)cc1 (stereo unspecified)
pIC50 [1]: 4.15
pKi [1]: 4.23

The next lines start with results.

pIC50 [1]: 5.21
pKi [1]: 5.31
SMILES: COc1ccc(S(=O)(=O)NC(=O)C(C)(C)Oc2cccc(N3CCCC(C(=O)N(Cc4ccc(-c5cccs5)cc4)C4CC4)C3)c2)cc1 (stereo unspecified)

pIC50 [1]: 5.11
pKi [1]: 5.19
SMILES: CC(C)(Oc1cccc(N2CCCC(C(=O)N(Cc3ccc(-c4cccs4)cc3)C3CC3)C2)c1)C(=O)NS(=O)(=O)c1ccccc1 (stereo unspecified)

pIC50 [2]: 4.52
pIC50 [4]: 4.55
pIC50 [1]: 5.54
pKi [1]: 5.64
pIC50 [8]: 4.70
pIC50 [9]: 4.81
pIC50 [10]: 5.11
SMILES: COc1cccc(S(=O)(=O)NC(=O)C(C)(C)Oc2cccc(N3CCC[C@H](C(=O)N(Cc4ccc(-c5cccs5)cc4)C4CC4)C3)c2)c1
Activity [3]: 98%
Activity [5]: 54%
Activity [6]: 81%
pIC50 [7]: 4.52
Activity [11]: Dose-Dependent Effect

pIC50 [1]: 5.20
pKi [1]: 5.29
SMILES: CC(C)(Oc1cccc(N2CCCC(C(=O)N(Cc3ccc(-c4cccs4)cc3)C3CC3)C2)c1)C(=O)NS(=O)(=O)c1cccc(C#N)c1 (stereo unspecified)

pIC50 [1]: 5.24
pKi [1]: 5.34
SMILES: COc1cccc(S(=O)(=O)NC(=O)C(C)(C)Oc2cccc(N3CCC[C@@H](C(=O)N(Cc4ccc(-c5cccs5)cc4)C4CC4)C3)c2)c1

pIC50 [1]: 5.15
pKi [1]: 5.24
SMILES: CC(C)(Oc1cccc(N2CCCC(C(=O)N(Cc3ccc(-c4cccs4)cc3)C3CC3)C2)c1)C(=O)NS(=O)(=O)c1cccc(O)c1 (stereo unspecified)

pIC50 [1]: 4.62
pKi [1]: 4.68
SMILES: CC(C)(Oc1cccc(N2CCCC(C(=O)N(Cc3ccc(-c4cccs4)cc3)C3CC3)C2)c1)C(=O)NS(C)(=O)=O (stereo unspecified)

pIC50 [1]: 5.32
pKi [1]: 5.41
SMILES: CC(C)(Oc1cccc(N2CCC[C@@H](C(=O)N(Cc3ccc(-c4cccs4)cc3)C3CC3)C2)c1)C(=O)NS(=O)(=O)c1ccc(C#N)cc1

pIC50 [1]: 5.32
pKi [1]: 5.41
SMILES: CC(C)(Oc1cccc(N2CCCC(C(=O)N(Cc3ccc(-c4cccs4)cc3)C3CC3)C2)c1)C(=O)NS(=O)(=O)c1ccc(C#N)cc1 (racemic)

pIC50 [1]: 5.29
pKi [1]: 5.39
SMILES: COc1cccc(S(=O)(=O)NC(=O)C(C)(C)Oc2cccc(N3CCCC(C(=O)N(Cc4ccc(-c5cccs5)cc4)C4CC4)C3)c2)c1 (stereo unspecified)
